Columns and labels:
[1] = system: L. mexicana Cas9 promastigotes; assay: Alamar blue drug sensitivity assay, L. mexicana Cas9 promastigotes; format: cell-based, Leishmania mexicana; settings: Leishmania mexicana, 120 h, 72 h + 48 h resazurin, at least 3 independent determinations, read-out: EC50 (µM) AVG ± SEM, Cas9
Procedure, shortened: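 Promastigotes cultured in HOMEM with 10% FBS at 25 °C were added as a 2 × 10^6 cells mL^−1 culture to 23-point compound dilutions. After 72 h at 25 °C, resazurin was added for a further 48 h, and fluorescence was read at ex 544/em 620 nm. EC50 came from a variable-slope sigmoid fit (3–4 independent experiments).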

[2] = system: L. mexicana Cas9^ΔNT1 promastigotes; assay: Alamar blue drug sensitivity assay, L. mexicana Cas9^ΔNT1 promastigotes; format: cell-based, Leishmania mexicana; settings: EC50 Cas9^ΔNT1 relative to L. mexicana Cas9
Excerpt: We used L. mexicana promastigotes of the Cas9 strain developed by Beneke at al. to generate the ΔNT1 strain, and from there the Cas9^ΔNT1+TcrNT2 (see below); The original Cas9 strain was generously donated by Prof. Eva Gluenz (University of Bern, Switzerland). All strains in standard HOMEM (GIBCO, Life Technologies, Paisley, UK) supplemented with 10% heat-inactivated fetal bovine serum (FBS; PAA Laboratories, Linz, Austria) and 1% of a penicillin–streptomycin solution (10,000 U mL^−1 each; Life Technologies) at 25 °C, as described.
The Alamar blue assay (resazurin sodium salt) was used to determine the drug sensitivity of the L. mexicana promastigotes in vitro. The assay is based on the reduction of resazurin sodium salt (blue and non-fluorescent) to resorufin (pink color and fluorescent) by live cells. HOMEM medium with 10% FBS (100 μL) was added to all wells of a white 96-well plate apart from the first well. 200 μL of a known concentration of test compounds was diluted in HOMEM medium and placed in the first well. Compounds were tested in one plate and every compound was diluted over two rows (23 concentrations), leaving the last well of every dilution as a negative control having 100 μL HOMEM medium. Next, 100 μL of L. mexicana culture at a density of 2 × 10^6 cells mL^−1 was added into every well in the plate and incubated for 72 h at a temperature of 25 °C after which resazurin sodium salt (Sigma) (20 μL of a solution of 12.5 mg in 100 mL PBS) was added and the plate was incubated under the same conditions for a further 48 h. Fluorescence was measured in a FLUOstar OPTIMA plate reader (BMG Labtech, Germany), at a wavelength of 544 nm for excitation and 620 nm for emission. The EC50 values and fluorescence data were determined and plotted by the GraphPad Prism 8 Software using an equation for a sigmoid curve with variable slope. Pentamidine was used as positive control and every experiment was performed 3–4 times independently.

TcrNT2 = TcrNT2 (Trypanosoma cruzi, UniProt Q4DHG0); assay: Transport of [^3H]-thymidine by TcrNT2 expressed in L. mexicana Cas9^ΔNT1 (Km, inhibition); format: cell-based
Sequence of TcrNT2 (Q4DHG0 entry or part of it): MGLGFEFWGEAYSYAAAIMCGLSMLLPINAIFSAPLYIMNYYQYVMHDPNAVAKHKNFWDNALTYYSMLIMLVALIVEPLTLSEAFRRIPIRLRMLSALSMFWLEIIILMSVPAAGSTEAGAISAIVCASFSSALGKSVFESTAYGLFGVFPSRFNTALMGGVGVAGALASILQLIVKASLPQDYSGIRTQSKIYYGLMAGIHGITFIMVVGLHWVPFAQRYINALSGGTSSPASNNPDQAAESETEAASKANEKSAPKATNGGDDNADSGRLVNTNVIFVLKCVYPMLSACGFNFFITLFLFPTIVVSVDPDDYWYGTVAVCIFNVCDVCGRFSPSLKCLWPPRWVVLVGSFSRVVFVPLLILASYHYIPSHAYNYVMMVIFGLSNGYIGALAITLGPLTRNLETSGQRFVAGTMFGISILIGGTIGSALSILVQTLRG
Procedure: These values can be used to calculate the Gibbs free energy of interaction ΔG°, but these experiments cannot distinguish between the test compound being transported or merely binding to the transporter and inhibiting the transit of the [^3H]-thymidine.
Transport assays were conducted with radiolabeled nucleosides [methyl-^3H]-thymidine (20 Ci/mmol; PerkinElmer (Waltham, MA, USA)) and [2,8-^3H]-adenosine (40 Ci/mmol; American Radiolabeled Chemicals (ARC, St-Louis, MO, USA)). Cells were harvested from mid-log phase cultures by centrifugation and washed into an assay buffer (AB) as described, at a density of 1 × 10^8 cells mL^−1. Transport assays were then performed exactly as described previously, using an oil-stop protocol. Briefly, 100 µL of cell suspension (10^7 cells) was mixed with 100 µL of [^3H]-substrate at 2 × final concentration and incubated for a pre-set time prior to the addition of 800 µL of ice-cold AB containing a saturating concentration of unlabeled permeant (usually 1 or 2.5 mM) and immediate centrifugation through an oil layer to separate cells from extracellular radiolabel. The 100 µL of [^3H]-substrate could also contain unlabeled substrate or an inhibitor at 2 × concentration, as appropriate. Next, the microfuge tubes were flash frozen in liquid nitrogen; the tips with the cell pellets cut off and collected in scintillation tubes. Cells were solubilized by incubation in 2% SDS under gentle shaking on a rocking platform prior to the addition of scintillation fluid (Scintilogic U, Lablogic, Sheffield, UK). The tubes stored in the dark overnight before counting in a 300SL Hidex Scintillation Counter (Lablogic).
Michaelis-Menten constants (Km) were calculated by plotting transport rates of [^3H]-substrate against the concentration, using the Michaelis-Menten equation V0 = Vmax([substrate]/([substrate] + Km)) and non-linear regression in GraphPad Prism 8. Inhibition constants (Ki) were calculated using the Cheng-Prusoff equation: Ki = IC50/(1 + (L/Km)), where L represents the radiolabel concentration. The IC50 was obtained by a non-linear regression of the inhibition curve of transport rate versus inhibitor concentration, using an equation for a sigmoid curve with variable slope (GraphPad Prism 8). The Gibbs free energy ΔG° was obtained using the equation ΔG° = −RTln(Ki), in which R is the gas constant and T is the absolute temperature. As discussed previously, these equations apply to competitive rather than non-competitive inhibition. Given that only close analogues of the substrate were used as potential inhibitors and that Hill slopes were consistently close to −1, it is very likely that inhibition was indeed competitive.

T. cruzi trypomastigotes = assay: Effect on cell derived trypomastigotes (percent motile parasites); format: cell-based; settings: Trypanosoma cruzi, 24 h incubation, percent of motile parasites
Procedure: Trypomastigotes were obtained by infecting CHO-K1 cells. CHO-K1 cells were cultivated in RPMI-1640 medium supplemented with 10% heat-inactivated fetal calf serum (FCS), 0.15% (w/v) […], 100 µg mL^−1 penicillin and 130 µg mL^−1 streptomycin and incubated at 37 °C in a humidified atmosphere containing 5% CO2. CHO-K1 cells were initially incubated with metacyclic trypomastigotes obtained by in vitro differentiation of epimastigotes as previously described (multiplicity of infection: 50 parasites per cell) for 4 h. After washing out the non-internalized parasites, the cells were incubated overnight in RPMI medium supplemented with 10% FCS at 37 °C and then maintained at 33 °C in a humidified atmosphere containing 5% CO2 as previously reported. Infected cells were maintained at 33 °C in the presence of 10% FCS. Infected cell-derived trypomastigotes started to burst into the culture medium at the 5th day post-infection. Trypomastigotes collected at day 5 or 6 post infection were used for the viability assays.
To measure the effect of compounds, cell derived trypomastigotes were collected from the extracellular medium at the fifth or sixth day after infection and counted in a Neubauer chamber. […] After incubation the trypanocidal effect was assessed by counting the percent of motile parasites in a Neubauer chamber. […]

L. mexicana = system: L. mexicana; set-up: method as in PMID 28453984; settings: ref [36]; read-out: EC50 against L. mexicana; cited from earlier work

Q: With `O=c1[nH]c(=O)n([C@H]2C[C@H](O)[C@@H](CO)O2)cc1F` [5-F-2′-dUrd, 5-F-2′-deoxyuridine] as the compound, how does the EC50 [1] read?
A: 2.19 ± 0.11 µM

Q: What about the “RF vs. Cas9 (resistance factor)” value [2] of the same compound?
A: 26.6

Q: And the “ΔG° (Gibbs free energy of interaction)” value (TcrNT2; calculated from Km or Ki at 25 °C)?
A: -7.93 kcal/mol

Q: What about the “δ(ΔG°) with respect to ΔG° of thymidine” value (TcrNT2; change in ΔG° relative to thymidine) of the same compound?
A: -1.03 kcal/mol

Q: What about the Ki (TcrNT2; read-out: Ki on the transport of [^3H]-thymidine by TcrNT2) of the same compound?
A: 1.5 ± 0.12 µM

Q: And the inhibition at 31 µM (T. cruzi trypomastigotes)?
A: ~30%

Q: And the EC50 (L. mexicana)?
A: 1.7 µM

From article PMC9693223 (Molecules, 2022)
